The subject of assay [1] is Mycobacterium tuberculosis. Nature of the assay: Antimycobacterial activity against Mycobacterium bovis BCG by alamar blue assay. The assay is classed as functional. Conditions: variant bovis BCG.
Assay [2] has as its system Mycobacterium tuberculosis. Nature of the assay: Antimycobacterial activity against Mycobacterium bovis BCG at 1 mg/mL by alamar blue assay. The assay is classed as functional, organism-based. Conditions: variant bovis BCG.

Converted amounts (≈) assume the structure as drawn. The source made the active and inactive calls. No cut-off for these calls is given here.

In general, MIC refers to the lowest concentration that inhibits growth of the organism. High values mean weaker potency, low ones greater potency.

`CCCCCCc1cn([C@@H]2O[C@H](CO)[C@@H](O)[C@@H]2O)nn1` had an MIC in assay [1] of 500 µg/mL (≈ 1750 µM). Consider `OC[C@H]1O[C@@H](n2cc(-c3ccccc3)nn2)[C@@H](O)[C@@H]1O`, for which, in assay [2], the outcome was inactive. In assay [1], `NNC(=O)c1ccncc1` [ISONIAZID] displayed an MIC of 0.1 µg/mL (≈ 0.729 µM).

`CC(C)=CCC/C(C)=C/CC/C(C)=C/COCc1cn([C@@H]2O[C@H](CO)[C@@H](O)[C@@H]2O)nn1` showed an MIC in assay [1] of 62 µg/mL (≈ 142 µM). In assay [1], `CCCCCCCCCCCCCCOCc1cn([C@@H]2O[C@H](CO)[C@@H](O)[C@@H]2O)nn1` displayed an MIC of 31 µg/mL (≈ 72.5 µM).

In assay [1], `CCCCCCCCCCc1cn([C@@H]2O[C@H](CO)[C@@H](O)[C@@H]2O)nn1` had an MIC of 250 µg/mL (≈ 732 µM). For the compound `CCCCCCCCc1cn([C@@H]2O[C@H](CO)[C@@H](O)[C@@H]2O)nn1`, in assay [1], inhibition of growth (MIC) required 62 µg/mL (≈ 198 µM).

The values are drawn from ChEMBL document CHEMBL1152256, “Synthesis of Arabino glycosyl triazoles as potential inhibitors of mycobacterial cell wall biosynthesis” (2008).
